Assay results from PubChem BioAssay AID2060610 (Molecular Pharmacology Branch, DTP, NCI, 2025).
pIC50: −log10 of the molar value. Several values for one entry are separate records, joined by “and”; a condition that tells them apart may be missing. Identical values can stand only once.

System: 616215-338-R-J1-PDC complex spheroids, viability % test/control
Experiment: Anticancer human tumor 616215-338-R-J1-PDC patient-derived colon adenocarcinoma cell line growth inhibition [CLK]
Conditions: for viability, T/C: stronger effect = lower value; active = viability on the fitted dose curve at most 10% of control; inactive = the rest
Method in brief: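 Multi-cell-type spheroids combined patient-derived tumor cells with HUVEC endothelial cells and human mesenchymal stem cells. Paired agents were dosed in half-log steps down from about clinical Cmax, or from 10 microM where Cmax was unknown.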

[1] = curve of first compound, second compound 0.0316 µM
[2] = curve of first compound, second compound 0.1 µM
[3] = curve of first compound, second compound 0.316 µM
[4] = curve of first compound, second compound 1 µM
[5] = curve of first compound, second compound 3.16 µM
[6] = curve of first compound, second compound 10 µM
[7] = second compound 0.0316 µM, first compound 0.0316 µM
[8] = second compound 0.0316 µM, first compound 0.1 µM
[9] = second compound 0.0316 µM, first compound 0.316 µM
[10] = second compound 0.0316 µM, first compound 1 µM
[11] = second compound 0.0316 µM, first compound 3.16 µM
[12] = second compound 0.0316 µM, first compound 10 µM
[13] = second compound 0.1 µM, first compound 0.0316 µM
[14] = second compound 0.1 µM, first compound 0.1 µM
[15] = second compound 0.1 µM, first compound 0.316 µM
[16] = second compound 0.1 µM, first compound 1 µM
[17] = second compound 0.1 µM, first compound 3.16 µM
[18] = second compound 0.1 µM, first compound 10 µM
[19] = second compound 0.316 µM, first compound 0.0316 µM
[20] = second compound 0.316 µM, first compound 0.1 µM
[21] = second compound 0.316 µM, first compound 0.316 µM
[22] = second compound 0.316 µM, first compound 1 µM
[23] = second compound 0.316 µM, first compound 3.16 µM
[24] = second compound 0.316 µM, first compound 10 µM
[25] = second compound 1 µM, first compound 0.0316 µM
[26] = second compound 1 µM, first compound 0.1 µM
[27] = second compound 1 µM, first compound 0.316 µM
[28] = second compound 1 µM, first compound 1 µM
[29] = second compound 1 µM, first compound 3.16 µM
[30] = second compound 1 µM, first compound 10 µM
[31] = second compound 3.16 µM, first compound 0.0316 µM
[32] = second compound 3.16 µM, first compound 0.1 µM
[33] = second compound 3.16 µM, first compound 0.316 µM
[34] = second compound 3.16 µM, first compound 1 µM
[35] = second compound 3.16 µM, first compound 3.16 µM
[36] = second compound 3.16 µM, first compound 10 µM
[37] = second compound 10 µM, first compound 0.0316 µM
[38] = second compound 10 µM, first compound 0.1 µM
[39] = second compound 10 µM, first compound 0.316 µM
[40] = second compound 10 µM, first compound 1 µM
[41] = second compound 10 µM, first compound 3.16 µM
[42] = second compound 10 µM, first compound 10 µM
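Note: spheroids exposed to agents for 7 days.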
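Throughout, for viability, T/C: 100% = DMSO vehicle wells.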

C#Cc1c(F)ccc2cc(O)cc(-c3ncc4c(N5CC6CCC(C5)N6)nc(OCC56CCCN5CC(F)C6)nc4c3F)c12 (stereo unspecified) + CNC(=O)c1ccc(Nc2nc(OC3CCCC3)c3c(-c4ccc5nc(C)oc5c4)c[nH]c3n2)c(OC)c1
> 7.50: pIC50 [3] | pIC50 [4] | pIC50 [5] | pIC50 [6]
6.63: pIC50 [2]
inactive: viability, T/C [7] 88.8% | viability, T/C [8] 90.4% | viability, T/C [9] 94.1% | viability, T/C [10] 91.1% | viability, T/C [11] 112% | viability, T/C [12] 110% | viability, T/C [13] 59.7% | viability, T/C [14] 56.2% | viability, T/C [15] 45.5% | viability, T/C [16] 43% | viability, T/C [17] 32.3% | viability, T/C [18] 24.4% | viability, T/C [19] 47.2% | viability, T/C [20] 43.8% | viability, T/C [21] 43.2% | viability, T/C [22] 42.3% | viability, T/C [23] 33% | viability, T/C [24] 18.6% | viability, T/C [25] 44.1% | viability, T/C [26] 44.2% | viability, T/C [27] 38.8% | viability, T/C [28] 30.7% | viability, T/C [29] 30.4% | viability, T/C [30] 17.8% | viability, T/C [31] 38.7% | viability, T/C [32] 41.3% | viability, T/C [33] 37.3% | viability, T/C [34] 33.1% | viability, T/C [35] 24.2% | viability, T/C [36] 18.2% | viability, T/C [37] 48.6% | viability, T/C [38] 42.6% | viability, T/C [39] 33.2% | viability, T/C [40] 34.7% | viability, T/C [41] 24.8% | viability, T/C [42] 18.9%
< 5.00: pIC50 [1]

CC(C)CC(NC(=O)C(Cc1ccccc1)NC(=O)c1cnccn1)B(O)O (stereo unspecified)
active: viability, T/C (compound 0.00949 µM) 0.2% and 0.21% | viability, T/C (compound 0.03 µM) 0.18% and 0.25% | viability, T/C (compound 0.0949 µM) 0.12% and 0.23% | viability, T/C (compound 0.3 µM) 0.85% and 0.21%
8.25 and 8.28: pIC50 (curve of compound)
inactive: viability, T/C (compound 0.000949 µM) 109% and 107% | viability, T/C (compound 0.003 µM) 109% and 97.9%

Nc1ccn(C2OC(CO)C(O)C2(F)F)c(=O)n1 (stereo unspecified) + CN1CCN(c2cc(C(=O)Nc3cc4cc(-c5cnn(C)c5)ccc4cn3)ccn2)CC1
inactive: viability, T/C [7] 15.5% | viability, T/C [8] 10.3% | viability, T/C [9] 14.1% | viability, T/C [10] 13.6% | viability, T/C [11] 14.3% | viability, T/C [12] 12.7% | viability, T/C [13] 18% | viability, T/C [14] 14.5% | viability, T/C [15] 14% | viability, T/C [16] 14.3% | viability, T/C [17] 17% | viability, T/C [18] 18% | viability, T/C [19] 13.8% | viability, T/C [20] 11% | viability, T/C [21] 13.8% | viability, T/C [22] 10.6% | viability, T/C [23] 12.1% | viability, T/C [24] 13.3%
> 7.50: pIC50 [1] | pIC50 [2] | pIC50 [3] | pIC50 [4] | pIC50 [5] | pIC50 [6]
active: viability, T/C [25] 0.1% | viability, T/C [26] 0.13% | viability, T/C [27] 2.94% | viability, T/C [28] 0.12% | viability, T/C [29] 1.83% | viability, T/C [30] 1.85% | viability, T/C [31] 0.1% | viability, T/C [32] 0.13% | viability, T/C [33] 0.14% | viability, T/C [34] 0.09% | viability, T/C [35] 0.1% | viability, T/C [36] 0.11% | viability, T/C [37] 0.15% | viability, T/C [38] 1.73% | viability, T/C [39] 0.16% | viability, T/C [40] 2% | viability, T/C [41] 3.33% | viability, T/C [42] 0.18%
